Measured values: patent US20260226049A1, “NITROGEN-CONTAINING HETEROCYCLIC COMPOUND, PREPARATION METHOD THEREFOR, AND USE THEREOF” (BIVISION PHARMACEUTICALS, INC, priority 2023, published 2026)
Blank lines part the entries; values can stand above or below the molecule they belong to.

What was measured:
[1] = system: HT1080 cell line with high FAP expression; assay: ^68Ga labeling and animal imaging assay (PET/CT) in tumor-bearing mice; assay type: in vivo; set-up: Imaging data, Muscle / Imaging data, Bone / Imaging data, Bladder / Imaging data, Tumor / Imaging data, Intestine / Imaging data, Brain / Imaging data, Heart / Imaging data, Liver / Imaging data, Lung / Imaging data, Kidney: unit not given here
Experimental: A. 1.0 mg of JHH7 precursor was weighed and dissolved in 0.1 M sodium acetate buffer to prepare a 1.0 mg/mL precursor solution.
B. The Ge/Ga generator was eluted stepwise with 5 mL of 0.1 M HCl, and the highest activity fraction (0.5 mL) was collected. 0.5 mL of metal-free 0.1 M sodium acetate buffer (pH=4.5) was added. In a 1.5 mL centrifuge tube as the reaction tube, a specific amount of precursor [1000 (molecular weight)/14.94 μL (precursor solution)/mCi (radionuclide)] was added, vortex-mixed for 10 s, and heated at 95° C., 800 rpm for 15 min.
C. The C18 Sep-Pak was activated with anhydrous ethanol, rinsed thoroughly with pure water, and the excess water was removed.
D. The solution after the reaction was passed through the C18 Sep-Pak, rinsed with pure water, and the excess water was removed. Subsequently, the C18 Sep-Pak was eluted with ethanol, collecting approximately 10 tubes with 3 drops per tube.
E. The final preparation should be a clear solution, prepared fresh for immediate use and limited to the same day.
1) The PET/CT was powered on according to the standard operating procedures, the scanning software was launched, and daily calibration was performed.
2) Animal anesthesia preparation was conducted, where tumor-bearing mice (supplied by Shanghai Alamo Pharmaceutical Technology Co., Ltd., HT1080 cell line with high FAP expression) were anesthetized using isoflurane.
3) After the loss of righting reflex in the tumor-bearing mice, the imaging agent was injected via the tail vein.
4) After drug administration, dynamic scanning at 1 hour and static scanning was performed at 3 hours were performed for 10 minutes.
5) During the process, animal body weight, injection dose, injection time, and residual dose were recorded according to the record sheet, and the time of measuring the injection dose and the time of measuring the residual dose were separately recorded.
6) The uptake in animal tumors, muscles, and other organs was analyzed using PMOD software.
^68Ga-labeled compounds JHH7 and JHH11 were imaged in tumor-bearing mice, and the results are shown in FIG. 5 and FIG. 6, with the imaging data shown in Tables 4 and 5.

[2] = system: HT1080 cell line with high FAP expression; assay: Therapeutic experiment of ^177Lu-labeled compounds in tumor-bearing mice; assay type: in vivo, Balb/c Nude mice
Experimental: Balb/c Nude tumor-bearing mice (supplier: Shanghai Alamo Pharmaceutical Technology Co., Ltd., HT1080 cell line with high FAP expression) aged approximately 6-8 weeks were randomly assigned to 13 experimental groups based on tumor volume, with 5 mice per group. Animal body weight and tumor size were measured, and administration was initiated on the grouping day starting with Group 1 (control group: normal saline). General health and appearance were observed daily after the start of the experiment. Animal body weight and tumor size were measured before each sample collection time point. Any abnormal observations detected during the entire study period were required to be recorded in the raw data.
The synthesized compounds were labeled with ^177Lu and subsequently utilized in the therapeutic assay on mouse tumor models. […] Furthermore, no significant changes in mouse body weight (FIG. 8) were observed throughout the experimental period.
• TGI^TV: Relative tumor inhibition rate (TGI^TV): TGI^TV (%)=[1−(Ti−T0)/(Vi−V0)]×100%; • (Ti: average tumor volume of the treatment group on day i of administration, TO: average tumor volume of the treatment group on day 0 of administration; Vi: average tumor volume of the solvent control group on day i of administration, V0: average tumor volume of the solvent control group on day 0 of administration) • T/C: T/C % is one of the most commonly used indicators for tumor response to treatment: T/C %=T/C*100%; • (T represents the average tumor volume of the treatment group at a specific time point; C represents the average tumor volume of the control group at a specific time point.)
The differences between the treatment groups (tumor volumes of the second, third, fourth, and fifth groups) and the control group (tumor volume of the first group) and between the tumor volumes of the first, third, fourth, and fifth groups and the tumor volume of the second group were analyzed using the two-way ANOVA Fisher's LSD test method. P-values less than 0.05 were considered statistically significant. Both statistical significance and biological significance were taken into account during the result analysis.

- Imaging data, Bladder ([1]; 5 min): 4.24
- Imaging data, Bone ([1]; 5 min): 0.92
- Imaging data, Brain ([1]; 5 min): 0.98
- Imaging data, Heart ([1]; 5 min): 8.61
- Imaging data, Intestine ([1]; 5 min): 1.96
- Imaging data, Kidney ([1]; 5 min): 13.43
- Imaging data, Liver ([1]; 5 min): 5.43
- Imaging data, Lung ([1]; 5 min): 3.12
- Imaging data, Muscle ([1]; 5 min): 0.82
- Imaging data, Tumor ([1]; 5 min): 1.06
- Imaging data, Bladder ([1]; 10 min): 17.03
- Imaging data, Bone ([1]; 10 min): 1.68
- Imaging data, Brain ([1]; 10 min): 0.66
- Imaging data, Heart ([1]; 10 min): 4.33
- Imaging data, Intestine ([1]; 10 min): 1.99
- Imaging data, Kidney ([1]; 10 min): 15.81
- Imaging data, Liver ([1]; 10 min): 3.56
- Imaging data, Lung ([1]; 10 min): 2.08
- Imaging data, Muscle ([1]; 10 min): 1.22
- Imaging data, Tumor ([1]; 10 min): 2.47
- Imaging data, Bladder ([1]; 15 min): 27.04
- Imaging data, Bone ([1]; 15 min): 1.17
- Imaging data, Brain ([1]; 15 min): 0.59
- Imaging data, Heart ([1]; 15 min): 3.22
- Imaging data, Intestine ([1]; 15 min): 1.66
- Imaging data, Kidney ([1]; 15 min): 20.15
- Imaging data, Liver ([1]; 15 min): 2.78
- Imaging data, Lung ([1]; 15 min): 1.97
- Imaging data, Muscle ([1]; 15 min): 1.16
- Imaging data, Tumor ([1]; 15 min): 3.26
- Imaging data, Bladder ([1]; 20 min): 45.38
- Imaging data, Bone ([1]; 20 min): 1.08
- Imaging data, Brain ([1]; 20 min): 0.55
- Imaging data, Heart ([1]; 20 min): 2.72
- Imaging data, Intestine ([1]; 20 min): 1.54
- Imaging data, Kidney ([1]; 20 min): 13.33
- Imaging data, Liver ([1]; 20 min): 2.44
- Imaging data, Lung ([1]; 20 min): 1.88
- Imaging data, Muscle ([1]; 20 min): 0.98
- Imaging data, Tumor ([1]; 20 min): 3.87
- Imaging data, Bladder ([1]; 25 min): 60.89
- Imaging data, Bone ([1]; 25 min): 1.22
- Imaging data, Brain ([1]; 25 min): 0.45
- Imaging data, Heart ([1]; 25 min): 2.29
- Imaging data, Intestine ([1]; 25 min): 1.30
- Imaging data, Kidney ([1]; 25 min): 8.42
- Imaging data, Liver ([1]; 25 min): 2.16
- Imaging data, Lung ([1]; 25 min): 1.47
- Imaging data, Muscle ([1]; 25 min): 0.75
- Imaging data, Tumor ([1]; 25 min): 4.30
- Imaging data, Bladder ([1]; 30 min): 73.70
- Imaging data, Bone ([1]; 30 min): 0.82
- Imaging data, Brain ([1]; 30 min): 0.41
- Imaging data, Heart ([1]; 30 min): 1.98
- Imaging data, Intestine ([1]; 30 min): 1.22
- Imaging data, Kidney ([1]; 30 min): 5.54
- Imaging data, Liver ([1]; 30 min): 2.05
- Imaging data, Lung ([1]; 30 min): 1.48
- Imaging data, Muscle ([1]; 30 min): 0.65
- Imaging data, Tumor ([1]; 30 min): 4.60
- Imaging data, Bladder ([1]; 1.5 h): 265.50
- Imaging data, Bone ([1]; 1.5 h): 0.50
- Imaging data, Brain ([1]; 1.5 h): 0.03
- Imaging data, Heart ([1]; 1.5 h): 0.20
- Imaging data, Intestine ([1]; 1.5 h): 0.62
- Imaging data, Kidney ([1]; 1.5 h): 1.00
- Imaging data, Liver ([1]; 1.5 h): 0.78
- Imaging data, Lung ([1]; 1.5 h): 0.58
- Imaging data, Muscle ([1]; 1.5 h): 0.37
- Imaging data, Tumor ([1]; 1.5 h): 4.40
- Imaging data, Bladder ([1]; 3 h): 4.50
- Imaging data, Bone ([1]; 3 h): 0.02
- Imaging data, Brain ([1]; 3 h): 0.04
- Imaging data, Heart ([1]; 3 h): 0.12
- Imaging data, Intestine ([1]; 3 h): 0.08
- Imaging data, Kidney ([1]; 3 h): 0.46
- Imaging data, Liver ([1]; 3 h): 0.82
- Imaging data, Lung ([1]; 3 h): 0.25
- Imaging data, Muscle ([1]; 3 h): 0.08
- Imaging data, Tumor ([1]; 3 h): 2.30
- uptake in the tumor at 3 hours ([1]; 3 hours after injection): tumor uptake was still observed
- time of peak tumor uptake after injection ([1]; tumor-bearing mice, intravenous injection): 30 min
SMILES: N#C[C@@H]1CC(F)(F)CN1C(=O)CNC(=O)c1cc2c(s1)CCN(C(=O)CCC(=O)NCCNC(=O)CCNC(=O)CN1CCN(CC(=O)O)CCN(CC(=O)O)CCN(CC(=O)O)CC1)C2 [^68Ga-JHH11, metal not drawn]
- metabolism and excretion from the mice ([1]; after injection): rapidly metabolized and excreted from the mice

SMILES: N#C[C@@H]1CC(F)(F)CN1C(=O)CNC(=O)c1cccc2c1CCN(C(=O)CCC(=O)NCCNC(=O)CCC(C(=O)O)N1CCN(CC(=O)O)CCN(CC(=O)O)CCN(CC(=O)O)CC1)C2 (stereo partly drawn) [^177Lu-JHH5, metal not drawn]
- T/C ([2]; 0.8 mCi, Day 14): 20.89%
- Tumor volume (mm^3) Group administration Day 14 ([2]; 0.8 mCi, Day 14): 545.74 ± 94.21 mm^3
- TGI^TV (%) ([2]; 0.8 mCi, Day 14, relative tumor inhibition rate): 83.08%
- Tumor volume (mm^3) Before administration ([2]; baseline, 0.8 mCi group): 148.04 ± 9.78 mm^3
